# Reference: patent US8883797B2, “Metalloenzyme inhibitor compounds” (Viamet Pharmaceuticals, Inc., priority 2011, dated 2014)
# Experiments:
# [1] = test system: Septoria tritici (ATCC 26517); test: Minimum Inhibitory Concentration (MIC) (Septoria tritici), CLSI-based microdilution; assay type: cell-based; settings: Zymoseptoria tritici, ATCC26517, 168 h; S. tritici ATCC 26517; 50% growth reduction; 7 days at 22 °C; read-out: Septoria Rating (MIC)
# Method: C. Minimum Inhibitory Concentration (MIC) (Septoria tritici) Compounds of the present disclosure were assessed for their ability to inhibit the growth of a common strain of the fungal plant pathogen Septoria tritici (ATCC 26517) using a procedure based on a Clinical and Laboratory Standards Institute (CLSI) microdilution assay protocol for filamentous fungi. Stock solutions of the test compounds and standards were prepared in DMSO at 6400 μg/mL. Each stock solution was used to prepare a 2-fold dilution series ranging from 16 to 0.016 μg/mL (total of 11 compound concentrations) in RPMI-1640 (Roswell Park Memorial Institute) medium containing 3-(N-morpholino)propanesulfonic acid (MOPS) buffer and 2% DMSO. A 100 μL aliquot of the dilutions was added to columns 1 (16 μg/mL compound) through 11 (0.016 μg/mL compound) of a 96-well microtiter plate. This format was replicated in a second row of the microtiter plate. Thus, each microtiter plate could include 11 concentrations of four test or control compounds replicated twice. A 100 μL aliquot of RPMI-1640/MOPS/2% DMSO medium was added to column 12 (no compound control) of the microtiter plate. A fresh culture of S. tritici was used to prepare a solution of approximately 5×10^4 colony-forming units per milliliter (cfu/mL) in RPMI/MOPS medium without DMSO. A 100 μL aliquot of this solution was added to all 96 wells in the microtiter plate. […] The assay plates were incubated at 22° C. for seven days in the dark without shaking. […] In each case of Table 3 the rating scale is as follows: […]
# [2] = test system: Puccinia recondita tritici; test: Fungicidal activity vs. leaf rust on wheat plants (PUCCRT); assay type: in vivo, Puccinia recondita tritici=Puccinia triticina; settings: 50 ppm spray on wheat (variety Yuma); inoculated the following day; severity evaluated 7-9 days later
# Excerpt: D. Evaluation of Fungicidal Activity Vs. Leaf Rust (Causal Agent Puccinia recondita tritici=Puccinia triticina; Bayer Code PUCCRT).
# Each pot contained 3-8 seedlings. These plants were sprayed until wet with the formulated test compounds. The compounds were formulated at 50 ppm in 10 vol. % acetone plus 90 vol. % Triton X water (deionized water 99.99 wt %+0.01 wt % Triton X100), giving a “formulated test compound.” Formulated test compounds were applied to plants using a turn table sprayer fitted with two opposing air atomization nozzles which delivered approximately 1500 L/ha of spray volume. On the following day, the leaves were inoculated with an aqueous spore suspension of Puccinia recondita tritici and the plants were kept in high humidity overnight to permit spores to germinate and infect the leaf. The plants were then transferred to a greenhouse until disease developed on untreated control plants. Disease severity was evaluated 7-9 days later, depending on the speed of disease development. Compounds 4(−), 9(+), 11, 13, 18, 21, 25, 26, 27, 28, 32, 34, 37, 38, 39, 42, 43, 48, 51, 52, 56, 57, and 59 were selected for testing against PUCCRT at 50 ppm. Compounds that provided >80% disease control at 50 ppm included 4(−), 9(+), 11, 13, 18, 21, 25, 26, 27, 28, 32, 34, 37, 38, 39, 42, 43, 48, 52, 56, and 57.
# [3] = test system: C. albicans; test: Minimum Inhibitory Concentration (MIC) (C. albicans), CLSI M27-A2; assay type: cell-based; settings: Candida albicans; about 50% growth reduction; approx. 48 h at 35 °C
# Method: A. Minimum Inhibitory Concentration (MIC) (C. albicans) Compounds of the present disclosure were assessed for their ability to inhibit the growth of common strains of fungus, C. albicans using a standardized procedure (CLSI M27-A2). Stock solutions of the test compounds and standards were prepared in DMSO at 1,600 μg/mL (C. albicans). Eleven, serial, one-half dilutions of compounds were prepared in 96-well plates in RPMI+MOPS. The assay concentration ranges were 8-0.001 μg/mL (C. albicans). Cell suspensions of C. albicans were prepared and added to each well at concentrations of approximately 3.7×10^3 colony-forming-units per milliliter (cfu/mL). All testing was in duplicate. The inoculated plates were incubated for approximately 48 h at 35±1° C. At the completion of incubation the wells of each plate were evaluated visually for the presence of fungal growth. […] For QC purposes C. krusei isolate ATCC 6258 (4.0×10^3 cfu/mL) was included in the VOR assay.
SMILES,MIC [1] [µg/mL],MIC [3] [µg/mL],disease control [2] [%]
"OC(Cn1cnnn1)(c1ccc(F)cc1F)C(F)(F)c1ccc2cc(Br)ccc2n1 (stereo not drawn) [9(+), 1-(6-Bromoquinolin-2-yl)-2-(2,4-difluorophenyl)-1,1-difluoro-3-(1H-tetrazol-1-yl)propan-2-ol]",≤ 0.5,,> 80
"OC(Cn1cnnn1)(c1ccc(F)cc1F)C(F)(F)c1cnc(-c2ccc(OC(F)F)cc2)cn1 (stereo not drawn) [Compound 39, 1-(5-(4-(Difluoromethoxy)phenyl)pyrazin-2-yl)-2-(2,4-difluorophenyl)-1,1-difluoro-3-(1H-tetrazol-1-yl)propan-2-ol]",≤ 0.5,,> 80
"OC(Cn1cnnn1)(c1ccc(F)cc1F)C(F)(F)c1cnc(-c2ccc(OC(F)(F)F)cc2)cn1 (stereo not drawn) [Compound 42, 2-(2,4-Difluorophenyl)-1,1-difluoro-3-(1H-tetrazol-1-yl)-1-(5-(4-(trifluoromethoxy)phenyl)pyrazin-2-yl)propan-2-ol]",≤ 0.5,,> 80
"OC(Cn1cnnn1)(c1ccc(F)cc1F)C(F)(F)c1cnc(-c2ccc(Br)cc2)cn1 (stereo not drawn) [Compound 43, 1-(5-(4-Bromophenyl)pyrazin-2-yl)-2-(2,4-difluorophenyl)-1,1-difluoro-3-(1H-tetrazol-1-yl)propan-2-ol]",≤ 0.5,,> 80
"COc1ccc(-c2cnc(C(F)(F)C(O)(Cn3cnnn3)c3ccc(F)cc3F)cn2)cc1 (stereo not drawn) [Compound 48, 2-(2,4-Difluorophenyl)-1,1-difluoro-1-(5-(4-methoxyphenyl)pyrazin-2-yl)-3-(1H-tetrazol-1-yl)propan-2-ol]",≤ 0.5,,> 80
"OC(Cn1cnnn1)(c1ccc(F)cc1F)C(F)(F)c1cnc(CCc2ccc(F)cc2)cn1 (stereo not drawn) [Compound 52, 2-(2,4-Difluorophenyl)-1,1-difluoro-1-(5-(4-fluorophenethyl)pyrazin-2-yl)-3-(1H-tetrazol-1-yl)propan-2-ol]",≤ 0.5,,> 80
"OC(Cn1cnnn1)(c1ccc(F)cc1F)C(F)(F)c1ccc(-c2ccc(C(F)(F)F)cc2)nn1 (stereo not drawn) [Compound 56, 2-(2,4-Difluorophenyl)-1,1-difluoro-3-(1H-tetrazol-1-yl)-1-(6-(4-(trifluoromethyl)phenyl)pyridazin-3-yl)propan-2-ol]",0.5 to 1.5,,> 80
"OC(Cn1cnnn1)(c1ccc(F)cc1F)C(F)(F)c1ccc(-c2ccc(OC(F)(F)F)cc2)nn1 (stereo not drawn) [Compound 57, 2-(2,4-Difluorophenyl)-1,1-difluoro-3-(1H-tetrazol-1-yl)-1-(6-(4-(trifluoromethoxy)phenyl)pyridazin-3-yl)propan-2-ol]",≤ 0.5,,> 80
"OC(Cn1cnnn1)(c1ccc(F)cc1F)C(F)(F)c1ccc(-c2ccc(OCC(F)(F)F)cc2)cc1 (stereo not drawn) [Compound 60, 2-(2,4-Difluorophenyl)-1,1-difluoro-3-(1H-tetrazol-1-yl)-1-(4′-(2,2,2-trifluoroethoxy)biphenyl-4-yl)propan-2-ol]",1.5 to 4,,
"OC(Cn1cnnn1)(c1ccc(F)cc1F)C(F)(F)c1ccc(-c2ccc(F)cc2)cc1 (stereo not drawn) [Compound 61, 2-(2,4-Difluorophenyl)-1,1-difluoro-1-(4′-fluoro-[1,1′-biphenyl]-4-yl)-3-(1H-tetrazol-1-yl)propan-2-ol]",0.5 to 1.5,,
"OC(Cn1cncn1)(Cn1cncn1)c1ccc(F)cc1F [Fluconazole, reference compound]",,0.5,

# Continued, in another order:
MIC [1] [µg/mL],MIC [3] [µg/mL],SMILES,disease control [2] [%]
≤ 0.5,,"OC(Cn1cnnn1)(c1ccc(F)cc1F)C(F)(F)c1ccc2cc(Cl)ccc2n1 (stereo not drawn) [4(−), 1-(6-Chloroquinolin-2-yl)-2-(2,4-difluorophenyl)-1,1-difluoro-3-(1H-tetrazol-1-yl)propan-2-ol]",> 80
≤ 0.5,,"OC(Cn1cnnn1)(c1ccc(F)cc1F)C(F)(F)c1nc2ccc(Cl)cc2s1 (stereo not drawn) [Compound 11, 1-(6-Chlorobenzo[d]thiazol-2-yl)-2-(2,4-difluorophenyl)-1,1-difluoro-3-(1H-tetrazol-1-yl)propan-2-ol]",> 80
≤ 0.5,,"OC(Cn1cnnn1)(c1ccc(F)cc1F)C(F)(F)c1ccc(Br)s1 (stereo not drawn) [Compound 13, 1-(5-Bromothiophen-2-yl)-2-(2,4-difluorophenyl)-1,1-difluoro-3-(1H-tetrazol-1-yl)propan-2-ol]",> 80
≤ 0.5,,"OC(Cn1cnnn1)(c1ccc(F)cc1F)C(F)(F)c1ccc2cc(C(F)(F)F)ccc2n1 (stereo not drawn) [Compound 18, 2-(2,4-Difluorophenyl)-1,1-difluoro-3-(1H-tetrazol-1-yl)-1-(6-(trifluoromethyl)quinolin-2-yl)propan-2-ol]",> 80
≤ 0.5,,"OC(Cn1cnnn1)(c1ccc(F)cc1F)C(F)(F)c1ccc2cc(OC(F)(F)F)ccc2n1 (stereo not drawn) [Compound 21, 2-(2,4-Difluorophenyl)-1,1-difluoro-3-(1H-tetrazol-1-yl)-1-(6-(trifluoromethoxy)quinolin-2-yl)propan-2-ol]",> 80
≤ 0.5,,"OC(Cn1cnnn1)(c1ccc(F)cc1F)C(F)(F)c1ccc2cc(C(F)F)ccc2n1 (stereo not drawn) [Compound 25, 1-(6-(Difluoromethyl)quinolin-2-yl)-2-(2,4-difluorophenyl)-1,1-difluoro-3-(1H-tetrazol-1-yl)propan-2-ol]",> 80
≤ 0.5,,"Cc1ccc2nc(C(F)(F)C(O)(Cn3cnnn3)c3ccc(F)cc3F)ccc2c1 (stereo not drawn) [Compound 26, 2-(2,4-Difluorophenyl)-1,1-difluoro-1-(6-methylquinolin-2-yl)-3-(1H-tetrazol-1-yl)propan-2-ol]",> 80
≤ 0.5,,"OC(Cn1cnnn1)(c1ccc(F)cc1F)C(F)(F)c1nc2ccc(Br)cc2s1 (stereo not drawn) [Compound 27, 1-(6-Bromobenzo[d]thiazol-2-yl)-2-(2,4-difluorophenyl)-1,1-difluoro-3-(1H-tetrazol-1-yl)propan-2-ol]",> 80
≤ 0.5,,"OC(Cn1ncnn1)(c1cc(F)ccc1F)C(F)(F)c1ccc2cc(Cl)ccc2n1 (stereo not drawn) [Compound 28, 1-(6-Chloroquinolin-2-yl)-2-(2,5-difluorophenyl)-1,1-difluoro-3-(2H-tetrazol-2-yl)propan-2-ol]",> 80
≤ 0.5,,"OC(Cn1cnnn1)(c1ccc(F)cc1)C(F)(F)c1ccc2cc(Cl)ccc2n1 (stereo not drawn) [Compound 32, 1-(6-Chloroquinolin-2-yl)-1,1-difluoro-2-(4-fluorophenyl)-3-(1H-tetrazol-1-yl)propan-2-ol]",> 80
≤ 0.5,,"OC(Cn1cnnn1)(c1ccc(Cl)cc1F)C(F)(F)c1cnc2cc(Cl)ccc2n1 (stereo not drawn) [Compound 34, 2-(4-Chloro-2-fluorophenyl)-1-(6-chloroquinoxalin-2-yl)-1,1-difluoro-3-(1H-tetrazol-1-yl)propan-2-ol]",> 80
≤ 0.5,,"OC(Cn1cnnn1)(c1ccc(F)cc1F)C(F)(F)c1cc2ccc(Cl)cc2cn1 (stereo not drawn) [Compound 37, 1-(7-Chloroisoquinolin-3-yl)-2-(2,4-difluorophenyl)-1,1-difluoro-3-(1H-tetrazol-1-yl)propan-2-ol]",> 80
≤ 0.5,,"OC(Cn1cnnn1)(c1ccc(F)cc1F)C(F)(F)c1cnc2cc(Br)ccc2n1 (stereo not drawn) [Compound 38, 1-(6-Bromoquinoxalin-2-yl)-2-(2,4-difluorophenyl)-1,1-difluoro-3-(1H-tetrazol-1-yl)propan-2-ol]",> 80
